# Experimental data reported in US11291630B2, “Gelling compositions for treating malignant tumours and/or preventing tumour recurrence” (Centre National de la Recherche Scientifique (CNRS), priority 2015, dated 2022).
# Assay: Measurement of gelation temperature by DSC and rheology (Example 1)
# Format: physicochemical
# Conditions: addition of 0.5% 5-FU to gel P407/P188/Alginate (20/2/1) (FIG. 2)
# Method: The gelation temperature (Tgel) was determined by Differential Scanning calorimetry (DSC) and rheology.
# By DSC: between 20-35 mg of the solution were sealed in aluminium pans and placed into the DSC instrument (DSC 1, Mettler Toledo). An empty aluminium pan (size: 40 μL) served as a reference sample. The instrument was equilibrated at 5° C. for 7 min prior to initiation of the scans. The sample was then heated to 40° C. at a heating rate of 5° C./min. Data analysis was performed with the software preinstalled in the instrument (STARe Software). The gelation temperature was determined as the small enthalpy change which was visible around at 10-12° C. above the big endothermic peak caused by micellization of the poloxamers, as already done in other studies (Nie et al, Int. J. Nanomedicine. 6 (2011) 151-166. doi:10.2147/IJN.S15057).
# By rheology: a deformation was applied and varied between 0.01 to 100% at a fixed frequency of 1 Hz with a cone/plan mobile with an angle of 1°, a diameter of 50 mm and with a gap of 0.1 mm. The sample was left at room temperature for 1 hour, then approximately 750 μL was loaded on the pelletier plan which is submitted to a temperature increase. The viscoelastic moduli G′ and G″ are measured. The gelation temperature corresponds to the curve intersections.
structure (smiles),measurement,value
"O=c1[nH]cc(F)c(=O)[nH]1 [Composition 5-FU, 5-Fluorouracil]",increase of the gelation temperature,2 °C
